# Columns and labels:
# Format in all cases: in vivo
# [1] = test system: Echinochloa crus-galli (ECHCG); experiment: B1 pre-emergence herbicidal activity; design: key to Pre-emergence herbicidal activity, ECHCG: 5=total damage to plant; 0=no damage to plant; settings: rate 1000 g/ha, evaluated after 13 days, score 0-5 (5=total damage, 0=no damage); for Pre-emergence herbicidal activity, ECHCG: Test 1b
# Description: (§1) Seeds of a variety of test species were sown in standard soil in pots: Triticum aestivium (TRZAW), Avena fatua (AVEFA), Alopecurus myosuroides (ALOMY), Echinochloa crus-galli (ECHCG), Lolium perenne (LOLPE), Zea mays (ZEAMX), Abutilon theophrasti (ABUTH), Amaranthus retroflexus (AMARE) and Setaria faberi (SETFA). After cultivation for one day (pre-emergence) under controlled conditions in a glasshouse (at 24/16° C., day/night; 14 hours light; 65% humidity), the plants were sprayed with an aqueous spray solution derived from the formulation of the technical active ingredient in acetone/water (50:50) solution containing 0.5% Tween 20 (polyoxyethelyene sorbitan monolaurate, CAS RN 9005-64-5). The test plants were then grown in a glasshouse under controlled conditions (at 24/16° C., day/night; 14 hours light; 65% humidity) and watered twice daily. After 13 days, the test was evaluated (5=total damage to plant; 0=no damage to plant).
# Lolium perenne (LOLPE) [2] = experiment: B1 pre-emergence herbicidal activity; design: key: 5=total damage to plant; 0=no damage to plant; settings: rate 1000 g/ha, evaluated after 13 days, score 0-5 (5=total damage, 0=no damage); for Pre-emergence herbicidal activity, LOLPE: Test 1b
# Description: as §1
# Zea mays (ZEAMX) [3] = experiment: B1 pre-emergence herbicidal activity; design: key: 5=total damage to plant; 0=no damage to plant; settings: Test 1a, rate 1000 g/ha, evaluated after 13 days, score 0-5 (5=total damage, 0=no damage)
# Description: as §1
# [4] = test system: Amaranthus retroflexus (AMARE); experiment: B1 pre-emergence herbicidal activity; design: key: 5=total damage to plant; 0=no damage to plant; settings: Test 1a, rate 1000 g/ha, evaluated after 13 days, score 0-5 (5=total damage, 0=no damage)
# Description: as §1
# [5] = test system: Abutilon theophrasti (ABUTH); experiment: B1 pre-emergence herbicidal activity; design: key: 5=total damage to plant; 0=no damage to plant; settings: Test 1a, rate 1000 g/ha, evaluated after 13 days, score 0-5 (5=total damage, 0=no damage)
# Description: as §1
# [6] = test system: Abutilon theophrasti (ABUTH); experiment: B2 post-emergence herbicidal activity; settings: Test 2a, rate 1000 g/ha, evaluated after 13 days, score 0-5 (5=total damage, 0=no damage)
# Description: (§2) Seeds of a variety of test species were sown in standard soil in pots: Triticum aestivium (TRZAW), Avena fatua (AVEFA), Alopecurus myosuroides (ALOMY), Echinochloa crus-galli (ECHCG), Lolium perenne (LOLPE), Zea mays (ZEAMX), Abutilon theophrasti (ABUTH), Amaranthus retroflexus (AMARE) and Setaria faberi (SETFA). After 8 days cultivation (post-emergence) under controlled conditions in a glasshouse (at 24/16° C., day/night; 14 hours light; 65% humidity), the plants were sprayed with an aqueous spray solution derived from the formulation of the technical active ingredient in acetone/water (50:50) solution containing 0.5% Tween 20 (polyoxyethelyene sorbitan monolaurate, CAS RN 9005-64-5). The test plants were then grown in a glasshouse under controlled conditions (at 24/16° C., day/night; 14 hours light; 65% humidity) and watered twice daily. After 13 days, the test was evaluated (5=total damage to plant; 0=no damage to plant).
# Setaria faberi (SETFA) [7] = experiment: B1 pre-emergence herbicidal activity; design: key to Pre-emergence herbicidal activity, SETFA: 5=total damage to plant; 0=no damage to plant; settings: rate 1000 g/ha, evaluated after 13 days, score 0-5 (5=total damage, 0=no damage); for Pre-emergence herbicidal activity, SETFA: Test 1b
# Description: as §1
# Lolium perenne (LOLPE) [8] = experiment: B2 post-emergence herbicidal activity; design: key: 5=total damage to plant; 0=no damage to plant; settings: rate 1000 g/ha, evaluated after 13 days, score 0-5 (5=total damage, 0=no damage)
# Description: as §2
# Zea mays (ZEAMX) [9] = experiment: B2 post-emergence herbicidal activity; design: key: 5=total damage to plant; 0=no damage to plant; settings: Test 2a, rate 1000 g/ha, evaluated after 13 days, score 0-5 (5=total damage, 0=no damage)
# Description: as §2
# [10] = test system: Amaranthus retroflexus (AMARE); experiment: B2 post-emergence herbicidal activity; design: key: 5=total damage to plant; 0=no damage to plant; settings: Test 2a, rate 1000 g/ha, evaluated after 13 days, score 0-5 (5=total damage, 0=no damage)
# Description: as §2
# [11] = test system: Echinochloa crus-galli (ECHCG); experiment: B2 post-emergence herbicidal activity; design: key: 5=total damage to plant; 0=no damage to plant; settings: rate 1000 g/ha, evaluated after 13 days, score 0-5 (5=total damage, 0=no damage)
# Description: as §2
# Setaria faberi (SETFA) [12] = experiment: B2 post-emergence herbicidal activity; design: key: 5=total damage to plant; 0=no damage to plant; settings: rate 1000 g/ha, evaluated after 13 days, score 0-5 (5=total damage, 0=no damage)
# Description: as §2
# [13] = test system: Triticum aestivium (TRZAW); experiment: B1 pre-emergence herbicidal activity; design: key: 5=total damage to plant; 0=no damage to plant; settings: Test 1b, rate 1000 g/ha, evaluated after 13 days, score 0-5 (5=total damage, 0=no damage)
# Description: as §1
# [14] = test system: Alopecurus myosuroides (ALOMY); experiment: B1 pre-emergence herbicidal activity; design: key: 5=total damage to plant; 0=no damage to plant; settings: Test 1b, rate 1000 g/ha, evaluated after 13 days, score 0-5 (5=total damage, 0=no damage)
# Description: as §1
# Avena fatua (AVEFA) [15] = experiment: B1 pre-emergence herbicidal activity; design: key: 5=total damage to plant; 0=no damage to plant; settings: Test 1b, rate 1000 g/ha, evaluated after 13 days, score 0-5 (5=total damage, 0=no damage)
# Description: as §1
# [16] = test system: Triticum aestivium (TRZAW); experiment: B2 post-emergence herbicidal activity; design: key: 5=total damage to plant; 0=no damage to plant; settings: Test 2b, rate 1000 g/ha, evaluated after 13 days, score 0-5 (5=total damage, 0=no damage)
# Description: as §2
# [17] = test system: Alopecurus myosuroides (ALOMY); experiment: B2 post-emergence herbicidal activity; design: key: 5=total damage to plant; 0=no damage to plant; settings: Test 2b, rate 1000 g/ha, evaluated after 13 days, score 0-5 (5=total damage, 0=no damage)
# Description: as §2
# Avena fatua (AVEFA) [18] = experiment: B2 post-emergence herbicidal activity; design: key: 5=total damage to plant; 0=no damage to plant; settings: Test 2b, rate 1000 g/ha, evaluated after 13 days, score 0-5 (5=total damage, 0=no damage)
# Description: as §2
Compound,"Pre-emergence herbicidal activity, ECHCG [1]","Pre-emergence herbicidal activity, TRAZW [13]","Pre-emergence herbicidal activity, LOLPE (Lolium perenne (LOLPE) [2])","Pre-emergence herbicidal activity, ALOMY [14]","Pre-emergence herbicidal activity, AVEFA (Avena fatua (AVEFA) [15])","Pre-emergence herbicidal activity, SETFA (Setaria faberi (SETFA) [7])","Control of weed species after post-emergence application, TRAZW [16]","Control of weed species after post-emergence application, LOLPE (Lolium perenne (LOLPE) [8]; Test 2b)","Control of weed species after post-emergence application, ALOMY [17]","Control of weed species after post-emergence application, AVEFA (Avena fatua (AVEFA) [18])","Control of weed species after post-emergence application, ECHCG ([11]; Test 2b)","Control of weed species after post-emergence application, SETFA (Setaria faberi (SETFA) [12]; Test 2b)",further results
"Cc1nc(-c2cncc(F)c2)ncc1NC(=O)OC(C)(C)C [Compound E1, tert-butyl N-[2-(5-fluoro-3-pyridyl)-4-methyl-pyrimidin-5-yl]carbamate]",,,,,,,,,,,,,"Control of weed species after pre-emergence application, ECHCG ([1]; Test 1a): 4; Control of weed species after pre-emergence application, LOLPE (Lolium perenne (LOLPE) [2]; Test 1a): 1; Control of weed species after pre-emergence application, ZEAMX (Zea mays (ZEAMX) [3]): 5; Control of weed species after pre-emergence application, AMARE [4]: 0; Control of weed species after pre-emergence application, ABUTH [5]: 0; Control of weed species after post-emergence application, ABUTH [6]: 1; Control of weed species after pre-emergence application, SETFA (Setaria faberi (SETFA) [7]; Test 1a): 4; Control of weed species after post-emergence application, LOLPE (Lolium perenne (LOLPE) [8]; Test 2a): 2; Control of weed species after post-emergence application, ZEAMX (Zea mays (ZEAMX) [9]): 5; Control of weed species after post-emergence application, AMARE [10]: 2; Control of weed species after post-emergence application, ECHCG ([11]; Test 2a): 4; Control of weed species after post-emergence application, SETFA (Setaria faberi (SETFA) [12]; Test 2a): 5"
CN(C)C(=O)Nc1cnc(-c2cncc(F)c2)nc1C(F)(F)F [Compound E13],3,0,1,0,1,4,2,3,1,3,4,5,
"CC(C)OC(=O)Nc1cnc(-c2cncc(F)c2)nc1C(F)(F)F [Compound E14, isopropyl N-[2-(5-fluoro-3-pyridyl)-4-(trifluoromethyl)pyrimidin-5-yl]carbamate]",3,0,0,0,1,5,1,3,0,3,4,5,
CC(C)COC(=O)Nc1cnc(-c2cncc(F)c2)nc1C(F)(F)F [Compound E15],5,0,1,0,2,5,2,3,1,4,5,5,
O=C1OCCN1c1cnc(-c2cncc(F)c2)nc1C(F)(F)F [Compound E17],3,0,0,0,0,4,1,1,0,2,3,4,
CCC(C)OC(=O)Nc1cnc(-c2cncc(F)c2)nc1C(F)(F)F (stereo not drawn) [Compound E18],2,1,0,0,1,5,0,1,0,1,4,5,
CCOC(=O)Nc1cnc(-c2cncc(F)c2)nc1C(F)(F)F [Compound E19],3,0,1,0,0,4,1,3,0,3,5,5,
CC(C)(C)OC(=O)Nc1cnc(-c2cncc(F)c2)nc1OCc1ccccc1 [Compound E20],0,0,0,0,0,0,0,0,0,0,0,1,
COC(=O)Nc1cnc(-c2cncc(F)c2)nc1C(F)(F)F [Compound E21],3,1,0,1,0,4,1,2,1,4,5,4,
CC(C)OC(=O)N(C(=O)OC(C)C)c1cnc(-c2cncc(F)c2)nc1C(F)(F)F [Compound E22],3,0,0,0,0,4,4,4,0,0,5,1,

# Source: US20200288711A1, “Pyrimidin-4-Carbamate or Urea Derivatives As Herbicides” (Syngenta Participations AG, priority 2017, published 2020)
